Earlier results in patent US20070298096A1, “Analgesic/Antipyretic Compositions for Enhanced Absorption” (priority 2004, published 2007).
Where two headings read alike, the source gives them in different places.

tmax (1 gram of APAP administered with 4 grams of calcium carbonate): 1.9 h
tmax (APAP alone, 1 gram): 1.4 h
time for the plasma level of APAP to reach its maximum, longer than APAP alone (co-administered with the calcium carbonate): ½
SMILES: CC(=O)Nc1ccc(O)cc1 [APAP, acetaminophen]
